Assay results as given in patent US8680290B2, “Isoxazoline derivatives and their use as herbicides” (Syngenta Limited, priority 2004, dated 2014).

What was measured:
[1] = test system: Monocotyledonous and dicotyledonous test plants; test: Example B1 herbicidal action, application post-emergence (Table B1a); assay type: in vivo; conditions: 250 g/ha, evaluated after 3 weeks, scale 0-10
In short: (§1)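 Compounds sprayed as aqueous solution from acetone/Emulsogen EL/NMP/dipropylene glycol monomethyl ether/X-77 formulation onto soil right after sowing (pre-emergence) or onto 8–9-day plants (post-emergence); greenhouse-grown. Damage scored 0 (none) to 10 (total) after 4 weeks pre- or 3 weeks post-emergence.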

[2] = test system: Monocotyledonous and dicotyledonous test plants; test: Example B1 herbicidal action, application pre-emergence (Table B1b); assay type: in vivo; conditions: 250 g/ha, evaluated after 4 weeks
In short: as §1

Compound | herbicidal damage rating, Abutilon [1] | herbicidal damage rating, Amaranthus [1] | herbicidal damage rating, Digitaria [1] | herbicidal damage rating, Panicum [1] | herbicidal damage rating, Setaria [1] | herbicidal damage rating, Sida [1] | herbicidal action (damage rating 0-10), Amaranthus [2] | herbicidal action (damage rating 0-10), Digitaria [2] | herbicidal action (damage rating 0-10), Panicum [2] | herbicidal action (damage rating 0-10), Setaria [2] | herbicidal action (damage rating 0-10), Sida [2]
CC1(C)CC(S(=O)(=O)C(Br)c2cccc(F)c2F)=NO1 (centres unmarked) [1.132] | 3 | 3 | 8 | 8 | 5 | 0 | 10 | 10 | 10 | 10 | 4
CC1(C)CC(S(=O)(=O)C(F)(Cl)c2ccc(F)cc2F)=NO1 (centres unmarked) [1.133] | 0 | 5 | 8 | 7 | 5 | 4 | 10 | 10 | 10 | 10 | 6
CC1(C)CC(S(=O)(=O)C(Cl)c2ccccc2OC(F)(F)F)=NO1 (centres unmarked) [1.143] | 3 | 7 | 7 | 7 | 6 | 2 | 7 | 10 | 10 | 10 | 7
CC1(C)CC(S(=O)(=O)C(F)(Cl)c2ccccc2OC(F)(F)F)=NO1 (centres unmarked) [1.144] | 3 | 3 | 8 | 7 | 7 | 5 | 10 | 10 | 10 | 10 | 8
Cc1ccc(F)c(C(F)(Cl)S(=O)(=O)C2=NOC(C)(C)C2)c1F (centres unmarked) [1.146] | 5 | 3 | 8 | 5 | 6 | 2 | 8 | 10 | 10 | 10 | 5
CC1(C)CC(S(=O)(=O)C(Cl)c2cc(F)cc3c2OCOC3)=NO1 (centres unmarked) [1.147] | 2 | 3 | 7 | 8 | 0 | 0 | 5 | 10 | 10 | 9 | 0
CC1(C)CC(S(=O)(=O)C(F)(Cl)c2cccc(F)c2F)=NO1 (centres unmarked) [1.148] | 0 | 7 | 8 | 8 | 8 | 2 | 10 | 10 | 10 | 10 | 6
Cn1nc(C(F)(F)F)c(C(F)(F)S(=O)(=O)C2=NOC(C)(C)C2)c1OCC(F)(F)F [2.01] | 8 | 5 | 7 | 5 | 5 | 6 | 10 | 10 | 10 | 10 | 9
Cn1nc(C(F)(F)F)c(C(F)(F)S(=O)(=O)C2=NOC(C)(C)C2)c1Cl [2.03] | 7 | 0 | 7 | 7 | 7 | 6 | 10 | 10 | 10 | 10 | 8
Cn1nc(C(F)(F)F)c(C(Cl)S(=O)(=O)C2=NOC(C)(C)C2)c1Cl (centres unmarked) [2.05] | 4 | 0 | 3 | 7 | 0 | 3 | 5 | 9 | 10 | 10 | 8
Cn1nc(C(F)(F)F)c(C(Br)(Br)S(=O)(=O)C2=NOC(C)(C)C2)c1OCC(F)(F)F [2.09] | 7 | 7 | 8 | 8 | 7 | 2 | 10 | 10 | 10 | 10 | 8
Cn1nc(C(F)(F)F)c(C(F)(F)S(=O)(=O)C2=NOC(C)(C)C2)c1OC(F)F [2.11] | 7 | 5 | 7 | 7 | 7 | 7 | 10 | 10 | 10 | 10 | 9
Cn1nc(C(F)(F)F)c(C(F)(Cl)S(=O)(=O)C2=NOC(C)(C)C2)c1OCC(F)(F)F (centres unmarked) [2.12] | 6 | 0 | 6 | 7 | 7 | 6 | 10 | 10 | 10 | 10 | 8
